How the values were obtained:
Assay type in all cases: binding
Musashi-2 (MSI2) = Musashi-2 (MSI2) (Homo sapiens, UniProt Q96DH6); experiment: MST with GFP-tagged protein in HEK293FT lysate; CETSA in HCT116 cells
LIN28A = molecular target: T1, LIN28A (Homo sapiens, UniProt Q9H9Z2); experiment: MST with GFP-tagged protein in cell lysate
T1 construct: GFP-tagged, HEK293FT lysate
T1 sequence (Q9H9Z2 2-209): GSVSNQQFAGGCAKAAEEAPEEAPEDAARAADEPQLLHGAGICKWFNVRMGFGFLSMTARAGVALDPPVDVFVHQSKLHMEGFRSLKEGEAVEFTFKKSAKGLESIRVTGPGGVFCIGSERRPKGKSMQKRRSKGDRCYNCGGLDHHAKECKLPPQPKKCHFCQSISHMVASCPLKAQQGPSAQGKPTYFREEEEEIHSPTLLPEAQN

HUR = molecular target: T2, HUR (Homo sapiens, UniProt Q15717); experiment: MST with GFP-tagged protein in cell lysate
T2 construct: gene ELAVL1; GFP-tagged, HEK293FT lysate
T2 sequence (Q15717 2-326): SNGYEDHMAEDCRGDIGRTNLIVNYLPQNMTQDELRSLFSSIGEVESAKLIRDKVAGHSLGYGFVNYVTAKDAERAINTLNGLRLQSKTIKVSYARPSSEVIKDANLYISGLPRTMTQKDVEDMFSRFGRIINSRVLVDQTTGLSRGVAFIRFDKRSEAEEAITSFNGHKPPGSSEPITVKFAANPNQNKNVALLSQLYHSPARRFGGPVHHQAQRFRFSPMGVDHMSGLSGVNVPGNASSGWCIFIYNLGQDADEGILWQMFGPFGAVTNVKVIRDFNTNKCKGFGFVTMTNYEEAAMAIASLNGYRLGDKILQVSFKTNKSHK

Chain of Musashi-2 (MSI2) (Q96DH6 whole entry): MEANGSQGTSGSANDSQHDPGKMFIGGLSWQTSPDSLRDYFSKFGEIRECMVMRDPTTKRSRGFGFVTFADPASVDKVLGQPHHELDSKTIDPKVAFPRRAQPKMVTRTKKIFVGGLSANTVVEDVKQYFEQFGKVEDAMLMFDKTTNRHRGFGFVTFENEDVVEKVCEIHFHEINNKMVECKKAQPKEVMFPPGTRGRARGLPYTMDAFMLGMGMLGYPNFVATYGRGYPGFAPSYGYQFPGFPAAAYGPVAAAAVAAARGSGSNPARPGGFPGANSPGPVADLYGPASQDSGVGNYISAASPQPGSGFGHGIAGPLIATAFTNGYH

COc1cc2c(cc1OC)-c1cc3ccc(OC)c(OC)c3c[n+]1CC2 [palmatine] showed a Kd (Musashi-2 (MSI2)) of 17 µM, a Kd (LIN28A) of 49.6 µM and a Kd (HUR) of 33.5 µM.

Source: publication PMC8830500, “Small Molecule Palmatine Targeting Musashi-2 in Colorectal Cancer” (Frontiers in Pharmacology, 2022)
